Measurements as given in patent US8084602B2, “Porphyrin derivatives and their use in photodynamic therapy” (Destiny Pharma Limited, priority 2002, dated 2011).

Columns and labels:
[1] = system: human dermal fibroblast (NHDF) cells; assay: Quenching studies using sodium azide and D2O; format: cell-based; settings: after illumination
Method: Triangle/solid line: Compound 10+PBS buffer+light; Squares/solid line: Compound 10+D2O+light; Circles/solid line: Compound 10+sodium azide+light; Triangles/dotted line: Compound 10+PBS buffer w/o light; Squares/dotted line: Compound 10+D2O w/o light; Circles/dotted line: Compound 10+sodium azide w/o light. (n=3, mean±Std).
Quenching studies using D2O and azide were performed with Compound 10 and light against keratinocytes in vitro. In order to investigate whether phototoxicity of the test compound against NHDF, NHEK and bacteria follows the photo-oxidation type II, sodium azide, a physical quencher of singlet oxygen as well as D2O an enhancer of reactive oxygen species were (Lin et al., 1991, Cancer Res. 51:1109-1116; Moan et al., 1979, Brit. J. Cancer 39:398-407).

[2] = system: Staphylococcus aureus BAA-44; assay: Emergence of bacterial resistance to PDT; format: cell-based; settings: S. aureus ATCC BAA-44; ten subsequent photodynamic treatments
Method: The potential build up of resistance of the bacterial cells to the exemplary compounds of the invention was tested in the multi-drug resistant (including methicillin) gram positive bacterium Staphylococcus aureus BAA-44, using Compound 10 as the photodynamic agent. The survival of S. aureus BAA-44 after the second treatment was again compared to the survival of S. aureus BAA-44 cells that had not been treated with PDT. […] In an additional experiment, clones which had been exposed nine times to PDT treatment by the above methodology were treated for a tenth time and the results compared to the cell kill observed in a parallel experiment where naïve cultures (i.e. which had not been exposed to PDT) were subjected to PDT treatment under exactly the same conditions.
The results obtained from comparing cell kill contained from cultures that had been exposed to 10 consecutive PDT treatments with neïve cultures (i.e. which had not been exposed to PDT) are shown in FIG. 7. The survival was expressed as log N0/N, where N0 and N represent the number of CFU/ml of the untreated and treated cell suspensions.

[3] = system: Staphylococcus epidermidis ATCC 700565; assay: Range of antimicrobial activity (CFU protocol); format: cell-based
Method: (§1) For the further investigation of the exemplary compounds (Table 2), the following protocol was adopted: • (i) Bacteria (S. aureus BAA-44 and E. coli 25922) were grown in brain heart infusion (BHI) broth until they reached the stationary phase of growth. • (ii) The cells were harvested by centrifugation (3000 g for 15 min) with a table centrifuge, washed with 10 mM PBS at pH 7.4 containing 2.7 mM KCl and 0.14 M NaCl and suspended in PBS at an optical density of 0.7 at 650 nm corresponding to 10^8-10^9 cells/ml. • (iii) The bacteria, at the desired cell density (˜10^8 cells/ml) were incubated for 5 min in the dark with various concentrations of the exemplary compounds. • (iv) At the end of the incubation period the cells were washed three times with PBS, suspended in PBS, transferred into a 96-well microtitre plate (200 μl/well) and illuminated for 15 min with the Waldmann light source (15.2 mW/cm^2; 13.7 J/cm^2). The cells were illuminated from the bottom of the plate laying it on the glass cover of the lamp. • (v) After illumination, cell survival was determined by plating serially diluted aliquots of treated and untreated (i.e. no exemplary compound or light present) cells onto brain heart agar (BHA) and counting the number of colonies after 18-24 h incubation at 37° C.
(§2) The antibacterial activity of Compound 10 was tested against a range of bacterial strains: • S. aureus ATCC BAA-44 (a methicillin resistant S. aureus) • Ps. aeruginosa ATCC 25668 • S. epidermidis ATCC 700565 • Streptococcus pyogenes ATCC 49117 • E. coli ATCC 25922

[4] = system: Pseudomonas aeruginosa ATCC 25668; assay: Range of antimicrobial activity (CFU protocol); format: cell-based
Method: as §1, §2

[5] = system: Streptococcus pyogenes ATCC 49117; assay: Range of antimicrobial activity (CFU protocol); format: cell-based
Method: as §1, §2

S. aureus ATCC BAA-44 = assay: Photodynamic activity against MRSA on ex vivo porcine skin; format: cell-based, Staphylococcus aureus; settings: 10 μM applied 10 minutes, 15 minutes irradiation, mean of three target areas
Method: Excised porcine skin was cut into 3(4)×3(4) cm^2 pieces under sterile conditions and incubated in 70% ethanol for 5 minutes to reduce background of colonised bacteria. After three washing steps in PBS, the skin pieces were fixed in petri dishes with Hepes-Agar. The epidermis (stratum corneum) was then inoculated with S. aureus ATCC BAA-44 (˜10^8, Volume: 100 μl) and the skin surface dried under laminar flow cabinet until visible dry. The regions of interest were determined using a “pap” pen (1 cm^2 diameter). A sterile solution of Compound 10 (10 μM) was applied onto the skin for 10 minutes. Post application, the ex vivo porcine skin was placed under the Waldmann light source 236 and illuminated for 15 min (15.2 mW/cm^2, 13.7 J/cm^2). A colony forming unit assay was performed to determine viable bacterial cell number immediately after irradiation using a sterile cotton rod to remove bacteria from the stratum corneum. The sterile cotton rod was moistened in sampling solution (0.1% Tween80 in 0.0075 M phosphate buffer pH 7.9) before swabbing the skin surface (3 times) and vortexed in sampling solution before undertaking serial dilutions to determine the bacterial recovery.

[6] = Photostability (photobleaching); format: physicochemical; settings: 30 minutes illumination
Excerpt: A bespoke light source capable of delivering light of an appropriate wavelength (417 nm) was developed to activate the test compounds (Waldmann light source 236). […] It consists of a light box (493 mm length×278 mm width×93.3 mm height) where the samples to be tested are placed on the top surface of the light box and illuminated from below.
The photostability of the exemplary compounds was investigated using standard photodynamic procedures. […] The solution was illuminated for various periods: 10, 20 and 30 minutes. After each predetermined illumination period, the absorbance at 404 nm corresponding to the maximum absorption peak of the compound was measured. Parallel experiments were undertaken where the absorbance of Compound 10 solutions that had been kept in the dark for the same time periods as the illumination time periods were measured. Over the 30 minutes period of illumination a small loss in the absorbance value at 404 nm was observed (see FIG. 10A).
The susceptibility of the Compound 10 to photobleaching when subjected to a light at a higher fluence rate (150 mW/cm^2; i.e. ten times that used normally) was investigated. With this illumination system, the solution was kept in a quartz cuvette during illumination while an equivalent solution was kept in the dark.

C[N+](C)(C)CCCOc1ccc(-c2c3nc(cc4ccc([nH]4)c(-c4ccc(OCCC[N+](C)(C)C)cc4)c4nc(cc5ccc2[nH]5)C=C4)C=C3)cc1.[Cl-].[Cl-] [Compound 10, 5,15-bis-[4-(3-Trimethylammonio-propyloxy)-phenyl]-porphyrin dichloride]
cell viability on addition of D2O ([1]; D2O): dramatic decrease
Cell killing in the presence of sodium azide ([1]; sodium azide (50 mM)): reduced
development of resistance [2]: no appreciable development of resistance
Concentration of Compound 10 required to obtain a 3 log reduction in cells (μM) [3]: 0.0025 μM
Concentration of Compound 10 required to obtain a 3 log reduction in cells (μM) [4]: 5.0 μM
Concentration of Compound 10 required to obtain a 3 log reduction in cells (μM) [5]: 0.01 μM
growth reduction (S. aureus ATCC BAA-44): 3.2 log10
loss in the absorbance value at 404 nm ([6]; 10 μM in phosphate-buffered saline/ethanol, blue light 15 mW/cm^2): small loss
reduction of absorbance caused by photobleaching ([6]; 10 μM, 150 mW/cm^2): 15-20%
